# Experimental data as given in patent US20210087565A1, “ANTISENSE ANTIBIOTICS AND BACTERIAL SECRETION BASED DELIVERY SYSTEM TO ELIMINATE DRUG-RESISTANT BACTERIA” (priority 2018, published 2021).
# Entries after “also recorded” stand apart in the source; their conditions may differ. Where two headings read alike, the source gives them in different places.
# Assays:
# [1] = system: clinical isolates of Enterobacteriaceae; test: Antibiotic resistance screening (MIC against CLSI breakpoints), all strains; assay type: cell-based; conditions: CLSI 2016-2017 breakpoints
# Description: (§1) Phenotypic antibiotic resistance characterization of the clinical isolates was performed to determine “sensitive” (S), “intermediate” (I), and “resistant” (R) phenotypes using the 2016-2017 Clinical & Laboratory Standards Institute (CLSI) sensitive/resistant breakpoint values (Table 4).
# (§2) Antibiotic resistance screening: Sensitive/resistant breakpoints were taken from the 2016-2017 Clinical & Laboratory Standards Institute report (Table 4). Liquid cultures of the clinical strains were diluted to a 0.5 McFarland standard and added to the respective antibiotic test condition. The antibiotic minimum inhibitory concentration (MIC) for each clinical isolate was determined as the lowest antibiotic concentration which prevented visible cell growth for 24 h. Strains were: “sensitive” if the MIC was equal to or below the sensitive-breakpoint concentration, “resistant” if the MIC was greater than or equal to the resistant-breakpoint concentration, and “intermediate” if the MIC was in-between.
# [2] = system: NDM-1 KPN; test: Antibiotic resistance screening (MIC against CLSI breakpoints); assay type: cell-based, Klebsiella pneumoniae; conditions: meropenem, CLSI 2016-2017 breakpoints
# Description: as §1, §2
# [3] = system: SL1344-mCherry in HeLa cells; test: Double infection of HeLa cells, PNA delivery and release by SL1344-Holin; assay type: cell-based, Salmonella enterica serovar typhimurium
# Description: FIG. 14. Combining the bacterial Type III secretion system (T3SS) and the holing/endolysin kill switch for PNA delivery and release. (A) Schematic showing the PNA deliver and release approach using the T3SS and Holin systems respectively to treat an intracellular infection of HeLa cells. HeLa cells were seeded 24 hours prior to infection. A 4:1 mixture of SL1344-Holin to SL1344-mCherry cells with (Bottom) and without (Top) 45 minute PNA pretreatment used to infect HeLa cells for 45 minutes. (Bottom) The PNA enters SL1344-Holin during the 45 minute pretreatment and is carried into the HeLa cell during infection. Following infection and gentamicin protection, the PNA is released from the SL1344-Holin during the 18-hours of treatment to target the SL1344-mCherry population. After 18-hours of incubation the HeLa cells are lysed to determine the number of intracellular colony forming units. (B) Normalized intracellular bacterial load represented as the ratio of normalized SL1344-mCherry:
# To that end, the present inventors built a “delivery strain” of Salmonella by expressing the holin lysis cassette, encoding a holin-antiholin according to SEQ ID NO. 34, under control of an inducible laciQ promoter (referred to as SL1344-Holin, FIG. 24), and a therapeutic “target strain” of Salmonella by expressing mCherry from a plasmid in SL1344 (referred to as SL1344-mCherry). The present inventors followed the same infection protocol as described above with few modifications and treated cells with a different PNA, α-recA (N′-[…]-AEEA-[…]-C′), to show the generalizability of the assay. […] As with the previous experiment, the present inventors allowed the Salmonella to uptake the PNA during a 45 minute incubation where the treatment condition (referred to as T3SS-PNA) consisted of SL1344-Holin incubated with 10 μM of α-recA in phosphate buffer saline (PBS) and the no treatment was incubated in only PBS. In parallel, equal cell densities of the target strain SL1344-mCherry was incubated with PBS for 45-minutes. SL1344-Holin (with or without PNA) and SL1344-mCherry cells were washed and mixed in a ratio of 4:1 respectively to achieve a final total MOI of approximately 10:1 for infection of HeLa cells. The infection was carried out for 45 minutes followed by the removal of extracellular bacteria using a gentamicin wash (FIG. 5A), and 18 hours of incubation in fresh growth medium containing gentamicin. […] To account for this variation, the present inventors measured the extracellular and intracellular bacterial load before and after infection respectively and reported the normalized ratio of the latter to the former (FIG. 5B-C, FIG. 26). […]
# [4] = system: SL1344; test: Growth inhibition of SL1344 in broth culture; assay type: cell-based, Salmonella enterica serovar typhimurium; conditions: 10 μM, 24 hours
# Description: FIG. 25. α-recA growth inhibition of SL1344. Optical density was measured at 600 nm in 50 μL cultures and normalized optical density is reported at 24 hours as absorbance at 600 nm minus media blank and each biological replicate normalized to the optical density reading at time zero. Overnight cultures of SL1344 were diluted 1:10,000 and treated with 10 μM addition of α-recA for 24 hours. Error bars indicate standard deviation of n=3 biological replicates.
# [5] = system: MDR E. coli; test: PNA growth assay (optical density) on clinical isolate; assay type: cell-based, Escherichia coli; conditions: for growth inhibition: 10 μM PNA, optical density vs no treatment at 16 hours
# Description: (§3) Bacterial Cell culture: The clinical isolates were obtained from the lab of Nancy Madinger at the University of Colorado Anschutz campus. Clinical isolates were grown in Cation Adjusted Mueller Hinton broth (CAMHB) (Becton, Dickinson and Company 212322) at 37° C. with 225 rpm shaking or on solid CAMHB with 1.5% agar at 37° C. Clinical isolates were maintained as freezer stocks in 90% CAMHB, 10% glycerol at −80° C. Freezer stocks were streaked out onto solid CAMHB and incubated for 16 h to produce single colonies prior to experiments. For each biological replicate, a single colony was picked from solid media and grown for 16 h in liquid CAMHB prior to experiments. Non-clinical isolates, such as E. coli MG1655 (ATCC700926) and Salmonella entorica serovar typhimurium SL1344, were cultured in liquid 2% lysogeny broth (LB) or on 2% LB with 1.5% agar for solid plates. S. typhimurium cultures were supplemented with 30 μg/mL streptomycin and SL1344 strains containing plasmids pFPV (SL1344-mCherry) or pRG1 modified with a lacIq promoter (SL1344-Holin) were supplemented with 100 μg/mL ampicillin. Freezer stocks were stored in 60% LB broth, 40% glycerol at −80° C. Freezer stocks were streaked out onto solid LB and incubated for 16 h to produce single colonies before experiments. For biological replicates, single colonies were started in liquid LB and grown for 16 hours prior to experiments. E. coli MG1655 PNA growth experiments were carried out in M9 media (1×M9 minimal media salts solution (MP Biomedicals), 2.0 mM MgSO4, and 0.1 mM CaCl2 in sterile water) with 0.4% glucose.
# (§4) PNA growth assay: Biological replicates were diluted 1:10,000 into treatment condition in 384-well plates and measured for 24 h in a Tecan GENios at 562 nm with a bandwidth of 35 nm. Media absorbance blanks were subtracted from data prior to analysis. Normalized optical density (OD) data is shown normalized to the time point where the “no treatment” growth curves reached saturation phase which varied across biological replicates.
# [6] = system: CRE E. coli; test: as above; assay type: cell-based, Escherichia coli; conditions: for growth inhibition: 10 μM PNA, optical density vs no treatment at 16 hours
# Description: as §3, §4
# [7] = system: ESBL KPN; test: as above; assay type: cell-based, Klebsiella pneumoniae; conditions: for monotherapy effect (in words): 10 μM
# Description: as §3, §4
# [8] = system: ESBL KPN; test: Potentiation of antibiotics with PNAs (Bliss Independence); assay type: cell-based, Klebsiella pneumoniae; conditions: 10 μM PNA + 2 μg/mL tetracycline; for S-value (Bliss Independence model): S>0 indicates synergy
# Description: (§5) Combinatorial effects were evaluated using the Bliss Independence model where the S parameter defines a deviation from no interaction as is defined as: […]
# (§6) Where ODAB is the OD at saturation time in only antibiotic, OD0 is the OD at saturation in no treatment, ODPNA is the OD at saturation in only antisense-PNA at 10 μM, and ODAB, PNA is the OD at saturation in a combination of antibiotic and antisense-PNA. Saturation time was determined as the time when the no treatment control reached its saturation growth phase. S>0 is a deviation towards synergy and S<0 is a deviation towards antagonism.
# [9] = system: MDR STm; test: PNA growth assay (optical density) on clinical isolate; assay type: cell-based, Salmonella enterica serovar typhimurium; conditions: MDR STm; 10 μM PNA; optical density vs no treatment at 16 hours
# Description: as §3, §4
# [10] = system: CRE E. coli; assay type: cell-based, Escherichia coli; conditions: for S-value (Bliss Independence model): S>0 indicates synergy; for growth with combination therapy (in words): p<0.05
# Description: as §5, §6
# [11] = system: E. coli MG1655; test: Growth curves and CFU of lab strain treated with PNA; assay type: cell-based, Escherichia coli; conditions: 10 μM
# Description: FIG. 7. Dose response of various PNA. Optical density of a 1:10,000 dilution of MG6155 from overnight liquid culture, treated with various concentrations of antisense inhibitors was measured for 3 biological replicates with error bars as standard deviations. Normalized growth was measured as the optical density at 22 hours normalized to no treatment. An asterisk (*) indicates a significant difference (p<0.05) as compared to no treatment for each inhibitor.
# FIG. 8. Antisense Inhibitors targeting novel pathways can inhibit growth of E. coli. z. (A) Growth curves of E. coli MG1655 from a 1:10,000 dilution from an overnight culture, normalized to time t=0 with 10 μM of respective antisense inhibitor. […] (B) Colony forming units per milliliter of MG1655 E. coli for respective treatment as a function of time. The CFU/mL at t=0 represents the starting culture after a 1:100,000 dilution from overnight culture. […] Significance is measured as p<0.05.
# as §3
# PNA growth assay: Biological replicates were diluted 1:10,000 into treatment condition in 384-well plates and measured for 24 h in a Tecan GENios at 562 nm with a bandwidth of 35 nm. Media absorbance blanks were subtracted from data prior to analysis. […]
# [12] = 10 μM PNA + chloramphenicol 8 μg/mL
compound,measurement,setting,value
CC1(C)S[C@@H]2[C@H](NC(=O)[C@H](N)c3ccccc3)C(=O)N2[C@H]1C(=O)O [ampicillin],antibiotic resistance phenotype,[1]; ampicillin,resistant
CO/N=C(\C(=O)N[C@@H]1C(=O)N2C(C(=O)O)=C(CSc3nc(=O)c(=O)[nH]n3C)CS[C@H]12)c1csc(N)n1 [ceftriaxone],antibiotic resistance phenotype,[1]; ceftriaxone,resistant
C[C@@H](O)[C@H]1C(=O)N2C(C(=O)O)=C(S[C@@H]3CN[C@H](C(=O)N(C)C)C3)[C@H](C)[C@H]12 [meropenem],antibiotic resistance phenotype,[2],resistant
N′-KFFKFFKFFK-AEEA-GTCGATAGCAT-C′ [α-recA],drop of normalized ratio of SL1344-mCherry to SL1344-Holin,"[3]; SL1344-Holin pretreated 45 minutes with 10 μM PNA, HeLa cells, 18 hours, compared to no treatment",99.6±0.72%
same,fate of target strain SL1344-mCherry (in words),"[3]; two out of three biological replicates, across a range of MOI",completely eliminated
same,normalized mCherry/Holin (in words),"[3]; with 1 mM IPTG during treatment, p=0.006",Significant decrease
same,normalized mCherry/Holin (in words),"[3]; without IPTG (leaky expression), p=0.026",Significant decrease
same,effect on Salmonella in broth cultures (in words),[4],lethal
"α-ffh: 12-mer antisense PNA GACAATGTTTGA (SEQ ID NO. 16) targeting ffh, conjugated to (KFF)3K cell penetrating peptide via AEEA-linker (all peptide nucleic acid (PNA); (KFF)3K cell-penetrating peptide attached via AEEA linker)",growth inhibition,[5],99±0.9%
same,growth inhibition,[6],98±1.5%
same,monotherapy effect (in words),[7],no or minimal growth inhibition
same,growth with combination therapy (in words),[8],significant growth inhibition compared to each monotherapy
same,S-value (Bliss Independence model),[8],positive
same,growth inhibition,[9],99±0.8%
"α-gyrB: 12-mer antisense PNA GTTGATGTCGAA (SEQ ID NO. 18) targeting gyrB, conjugated to (KFF)3K cell penetrating peptide via AEEA-linker (all peptide nucleic acid (PNA); (KFF)3K cell-penetrating peptide attached via AEEA linker)",S-value (Bliss Independence model),[10]; [12],0.27
same,growth with combination therapy (in words),[10]; [12],significant growth inhibition with combination therapy compared to each monotherapy
same,S-value (Bliss Independence model),[10]; 10 μM PNA + gentamicin 4 μg/mL,0.19
same,growth with combination therapy (in words),[10]; 10 μM PNA + gentamicin 4 μg/mL,significant growth inhibition with combination therapy compared to each monotherapy
same,monotherapy effect (in words),[5],effective in killing
same,growth inhibition,[5],36±14.2%
same,monotherapy effect (in words),[6]; 10 μM,partial therapeutic effect; also recorded: effective in killing
same,growth inhibition,[6],71±12%
same,monotherapy effect (in words),[7],no or minimal growth inhibition
same,growth inhibition,"[7]; 10 μM PNA, optical density vs no treatment at 16 hours",5±1.4%
same,effect on growth (in words),[11],effective in killing
same,growth with combination therapy (in words),[8],significant growth inhibition compared to each monotherapy
same,S-value (Bliss Independence model),[8],positive
same,growth inhibition,[9],74±15.4%
